Measured values as given in paper PMC6044503 (ACS Omega, 2017).
Where a SMILES comes first, the peptide text is derived from it. [ ]: non-standard residue; d: D form. The star is where a group is joined. Phe(4-F) = N[C@@H](Cc1ccc(F)cc1)C(=O)O; 2Nal = N[C@@H](Cc1ccc2ccccc2c1)C(=O)O; Cyclohexanecarbonyl = O=C(C1CCCCC1)*; Cha = N[C@@H](CC1CCCCC1)C(=O)O; 4Amb = NCc1ccc(C(=O)O)cc1; Isobutyryl = CC(C)C(=O)*; Aib = CC(C)(N)C(=O)O; Bz = O=C(c1ccccc1)*

Columns and labels:
human Y2R [1] = target: T1, human Y2R (Homo sapiens, UniProt P49146); assay: biochemical; assay type: binding
T1 sequence (P49146 1-381): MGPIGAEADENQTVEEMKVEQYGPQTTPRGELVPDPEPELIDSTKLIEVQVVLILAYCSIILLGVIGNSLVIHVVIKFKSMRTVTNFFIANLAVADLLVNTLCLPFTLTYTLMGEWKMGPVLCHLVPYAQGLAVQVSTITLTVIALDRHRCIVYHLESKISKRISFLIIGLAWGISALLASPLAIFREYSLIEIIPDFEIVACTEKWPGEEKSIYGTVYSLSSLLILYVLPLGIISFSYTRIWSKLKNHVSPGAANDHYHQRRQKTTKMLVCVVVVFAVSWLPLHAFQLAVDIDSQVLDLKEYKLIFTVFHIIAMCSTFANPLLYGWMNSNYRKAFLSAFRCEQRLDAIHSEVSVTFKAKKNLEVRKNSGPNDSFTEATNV

human Y2R [2] = target: T1, human Y2R; assay: biochemical; assay type: biochemical
male C57BL/6J mice = assay: Food intake assay, bolus ip administration in lean mice; assay type: in vivo, mouse; settings: 3 h after administration, vs saline, mean ± SD
[3] = Stability in 20% mouse serum/PBS; assay type: in vitro ADME; settings: for remaining at 0.5 h: mouse, 20% mouse serum in PBS

Row | Compound | IC50 (human Y2R [1]) [nM] | EC50 (human Y2R [2]) [nM] | % food intake inhibition (male C57BL/6J mice; bolus ip 2000 nmol/kg) [%] | remaining at 0.5 h [3] [%] | % food intake inhibition (male C57BL/6J mice; bolus ip 1000 nmol/kg) [%] | metabolites in mouse serum ([3]; within 30 min in 20% mouse serum/PBS) | % food intake inhibition (male C57BL/6J mice; bolus ip 250 nmol/kg) [%] | % food intake inhibition (male C57BL/6J mice; bolus ip 500 nmol/kg) [%]
1 | CC[C@H](C)[C@H](NC(=O)[C@H](Cc1ccc(O)cc1)NC(=O)[C@H](C)NC(=O)[C@H](CCCNC(=N)N)NC(=O)c1ccccc1)C(=O)N[C@@H](CC(N)=O)C(=O)N[C@@H](CC(C)C)C(=O)N[C@H](C(=O)N[C@H](C(=O)N[C@@H](CCCNC(=N)N)C(=O)N[C@@H](CCC(N)=O)C(=O)N[C@@H](CCCNC(=N)N)C(=O)N[C@@H](Cc1ccc(O)cc1)C(N)=O)[C@@H](C)O)[C@@H](C)CC [Compound 1, benzoyl-[Ala^26,Ile^28,31]PYY(25–36)] (Bz-RAYINLITRQRY-NH2) | 16 | 1.7 | 25 ± 7 | 5 | – | – | – | –
2 | CC[C@H](C)[C@H](NC(=O)[C@H](Cc1ccc(O)cc1)NC(=O)[C@H](C)NC(=O)[C@H](CCCNC(=N)N)NC(=O)c1ccccc1)C(=O)N[C@@H](CC(N)=O)C(=O)N[C@@H](CC(C)C)C(=O)N[C@H](C(=O)N[C@H](C(=O)N[C@@H](CCCNC(=N)N)C(=O)N[C@@H](CCC(N)=O)C(=O)N[C@@H](CCCNC(=N)N)C(=O)N[C@@H](CC1CCCCC1)C(N)=O)[C@@H](C)O)[C@@H](C)CC [Compound 2] (Bz-RAYINLITRQR[Cha]-NH2) | 3.2 | 1.1 | 21 ± 5 | 53 | – | – | – | –
3 | CC[C@H](C)[C@H](NC(=O)[C@H](CC1CCCCC1)NC(=O)[C@H](Cc1c[nH]cn1)NC(=O)[C@H](CCCNC(=N)N)NC(=O)c1ccccc1)C(=O)N[C@@H](CC(N)=O)C(=O)N[C@@H](CC(C)C)C(=O)N[C@H](C(=O)N[C@H](C(=O)N[C@@H](CCCNC(=N)N)C(=O)N[C@@H](CCC(N)=O)C(=O)N[C@@H](CCCNC(=N)N)C(=O)N[C@@H](Cc1ccc(O)cc1)C(N)=O)[C@@H](C)O)[C@@H](C)CC [Compound 3] (Bz-RH[Cha]INLITRQRY-NH2) | 15 | 1.9 | 39 ± 7 | 10 | 17 ± 7 | – | – | –
4 | CC[C@H](C)[C@H](NC(=O)[C@H](CC1CCCCC1)NC(=O)[C@H](Cc1c[nH]cn1)NC(=O)[C@H](CCCNC(=N)N)NC(=O)c1ccccc1)C(=O)N[C@@H](CC(N)=O)C(=O)N[C@@H](CC(C)C)C(=O)N[C@H](C(=O)N[C@H](C(=O)N[C@@H](CCCNC(=N)N)C(=O)N[C@@H](CCC(N)=O)C(=O)N[C@@H](CCCNC(=N)N)C(=O)N[C@@H](CC1CCCCC1)C(N)=O)[C@@H](C)O)[C@@H](C)CC [Compound 4] (Bz-RH[Cha]INLITRQR[Cha]-NH2) | 7.2 | 3.6 | – | 102 | 34 ± 6 | did not yield any apparent metabolites | – | –
5 | CC[C@H](C)[C@H](NC(=O)[C@H](CC1CCCCC1)NC(=O)[C@H](Cc1c[nH]cn1)NC(=O)[C@H](CCCNC(=N)N)NC(=O)c1ccccc1)C(=O)N[C@@H](CC(N)=O)C(=O)N[C@@H](Cc1c[nH]c2ccccc12)C(=O)N[C@H](C(=O)N[C@H](C(=O)N[C@@H](CCCNC(=N)N)C(=O)N[C@@H](CCC(N)=O)C(=O)N[C@@H](CCCNC(=N)N)C(=O)N[C@@H](CC1CCCCC1)C(N)=O)[C@@H](C)O)[C@@H](C)CC [Compound 5] (Bz-RH[Cha]INWITRQR[Cha]-NH2) | 9.8 | 2.3 | 65 ± 5 | 93 | 40 ± 2 | – | 10 ± 4 | 8 ± 7
6 | CC[C@H](C)[C@H](NC(=O)[C@H](CC1CCCCC1)NC(=O)[C@H](Cc1c[nH]cn1)NC(=O)[C@H](CCCNC(=N)N)NC(=O)c1ccccc1)C(=O)N[C@@H](CC(N)=O)C(=O)N[C@@H](Cc1ccc(F)cc1)C(=O)N[C@H](C(=O)N[C@H](C(=O)N[C@@H](CCCNC(=N)N)C(=O)N[C@@H](CCC(N)=O)C(=O)N[C@@H](CCCNC(=N)N)C(=O)N[C@@H](CC1CCCCC1)C(N)=O)[C@@H](C)O)[C@@H](C)CC [Compound 6] (Bz-RH[Cha]IN[Phe(4-F)]ITRQR[Cha]-NH2) | 11 | 2.9 | – | 96 | 40 ± 5 | – | – | 18 ± 5
7 | CC(C)C[C@H](NC(=O)[C@H](CC(N)=O)NC(=O)[C@H](CC1CCCCC1)NC(=O)[C@H](CC1CCCCC1)NC(=O)[C@H](Cc1c[nH]cn1)NC(=O)[C@H](CCCNC(=N)N)NC(=O)C(C)C)C(=O)NC(C)(C)C(=O)N[C@H](C(=O)N[C@@H](CCCNC(=N)N)C(=O)N[C@@H](CCC(N)=O)C(=O)N[C@@H](CCCNC(=N)N)C(=O)N[C@@H](CC1CCCCC1)C(N)=O)[C@@H](C)O [Compound 23] (Isobutyryl-RH[Cha][Cha]NL[Aib]TRQR[Cha]-NH2) | 3.1 | 1.2 | – | – | – | – | 14 ± 7 | 20 ± 11
8 | CC(C)C[C@H](NC(=O)[C@H](CC(N)=O)NC(=O)[C@H](CC1CCCCC1)NC(=O)[C@H](CC1CCCCC1)NC(=O)[C@H](Cc1cnc[nH]1)NC(=O)[C@H](CCCNC(=N)N)NC(=O)c1ccc(CN)cc1)C(=O)NC(C)(C)C(=O)N[C@H](C(=O)N[C@@H](CCCNC(=N)N)C(=O)N[C@@H](CCC(N)=O)C(=O)N[C@@H](CCCNC(=N)N)C(=O)N[C@@H](CC1CCCCC1)C(N)=O)[C@@H](C)O [Compound 24] (H-[4Amb]RH[Cha][Cha]NL[Aib]TRQR[Cha]-NH2) | 0.65 | 0.48 | – | – | – | – | – | 29 ± 7
9 | C[C@@H](O)[C@H](NC(=O)C(C)(C)NC(=O)[C@H](Cc1c[nH]c2ccccc12)NC(=O)[C@H](CC(N)=O)NC(=O)[C@H](CC1CCCCC1)NC(=O)[C@H](CC1CCCCC1)NC(=O)[C@H](Cc1c[nH]cn1)NC(=O)[C@H](CCCNC(=N)N)NC(=O)C1CCCCC1)C(=O)N[C@@H](CCCNC(=N)N)C(=O)N[C@@H](CCC(N)=O)C(=O)N[C@@H](CCCNC(=N)N)C(=O)N[C@@H](CC1CCCCC1)C(N)=O [Compound 27] (Cyclohexanecarbonyl-RH[Cha][Cha]NW[Aib]TRQR[Cha]-NH2) | 8.9 | 2.2 | – | – | – | – | – | 12 ± 8
10 | C[C@@H](O)[C@H](NC(=O)C(C)(C)NC(=O)[C@H](Cc1ccc(F)cc1)NC(=O)[C@H](CC(N)=O)NC(=O)[C@H](CC1CCCCC1)NC(=O)[C@H](CC1CCCCC1)NC(=O)[C@H](Cc1c[nH]cn1)NC(=O)[C@H](CCCNC(=N)N)NC(=O)C1CCCCC1)C(=O)N[C@@H](CCCNC(=N)N)C(=O)N[C@@H](CCC(N)=O)C(=O)N[C@@H](CCCNC(=N)N)C(=O)N[C@@H](CC1CCCCC1)C(N)=O [Compound 28] (Cyclohexanecarbonyl-RH[Cha][Cha]N[Phe(4-F)][Aib]TRQR[Cha]-NH2) | 31 | 7.2 | – | – | – | – | – | 21 ± 7
11 | CC(C)C[C@H](NC(=O)[C@H](CC(N)=O)NC(=O)[C@H](CC1CCCCC1)NC(=O)[C@H](Cc1ccc2ccccc2c1)NC(=O)[C@H](Cc1c[nH]cn1)NC(=O)[C@H](CCCNC(=N)N)NC(=O)C1CCCCC1)C(=O)NC(C)(C)C(=O)N[C@H](C(=O)N[C@@H](CCCNC(=N)N)C(=O)N[C@@H](CCC(N)=O)C(=O)N[C@@H](CCCNC(=N)N)C(=O)N[C@@H](CC1CCCCC1)C(N)=O)[C@@H](C)O [Compound 29] (Cyclohexanecarbonyl-RH[2Nal][Cha]NL[Aib]TRQR[Cha]-NH2) | 18 | 14 | – | – | – | – | – | 28 ± 8
